In patent US7807445B2, “Antibiotic compound” (Merck Sharp and Dohme de Espana, S.A., priority 2004, dated 2010):
Values after ≈ are worked out from the molar mass of the structure shown.

Experiments:
[1] = Microbroth dilution assay (MIC), antibacterial activity; type: cell-based; details: range over all test strains (S. aureus, S. pneumoniae, E. faecalis, E. faecium, B. subtilis, E. coli and resistant strains); 35° C., read to no growth after 22-24 hours; NCCLS guidelines; read-out: minimum inhibitory concentration (MIC)
Method: (§1) The protocols used to determine the antibacterial activity of Compound I are described below.
(§2) • Cation-Adjusted Mueller Hinton Broth (MH; BBL) • 50% Lysed Horse Blood (LHB; BBL) (stored frozen) • RPMI 1640 (BioWhittaker) • Human Serum (Pel-Freez) • RPMI 1640 (BioWhittaker) • Haemophilus Test Medium (HTM, Remel) • Trypticase Soy Broth (TSB, 5 mL/tube; BBL) • 0.9% Sodium Chloride (Saline; Baxter) • Trypticase Soy+5% Sheep Blood Agar Plates (TSA; BBL) • Sabouraud Dextrose Agar Plates (BBL) • Chocolate Agar Plates (BBL) • 2× Skim Milk (Remel) • Microbank Beads (Kramer Scientific) • MIC 2000 Microtiter plate inoculator. • 2× Trypticase Soy Broth (TSB, BBL)+15% glycerol/50% horse serum. • 96-Well Microtiter plates, lids, inoculum trays (Dynex Laboratories) • 8-Channel Finn Multichannel pipettor, 0.5-10 μL volume Methods: Media Preparation
(§3) Cation-Adjusted Mueller Hinton Broth (BBL): Prepared according to manufacturer's instructions (22 gms dissolved in 1000 mL water; autoclaved 22 minutes). Stored refrigerated. Filter-sterilized before use using a Corning 0.45 Tm cellulose acetate filter.
(§4) Cation-Adjusted Mueller Hinton+2.5% Lysed Horse Blood: Aseptically add 5 mL 50% lysed horse blood to 100 mL Cation-Adjusted Mueller Hinton Broth. Filter-sterilize before use using a Corning 0.45 Tm cellulose acetate filter. […]

[2] = tested on: various strains of S. aureus, S. pneumoniae, E. faecalis, E. faecium, B. subtilis and E. coli, including MRSA, VRE, multidrug-resistant E. faecium …; test: as above; type: cell-based; details: various strains of S. aureus, S. pneumoniae, E. faecalis, E. faecium, B. subtilis and E. coli, including MRSA, VRE, multidrug-, macrolide- and linezolid-resistant species
Method: as §1, §2, §3, §4

Question: For `C=C1C[C@@]23C=CC(=O)[C@@](C)(CCC(=O)Nc4c(O)ccc(C(=O)O)c4O)C2C[C@@H]1CC3` (stereo in doubt) [Compound I], which MIC [1] is on record?
Answer: 0.5 to 32 µg/mL (≈ 1.18 to 75.2 µM)

Question: And the antibacterial activity [2]?
Answer: demonstrates antibacterial activity
